The values below come from US20210054320A1, “NEURON CULTIVATION DEVICE, NEURON CULTIVATING METHOD, CULTIVATED NEURON, ANALYSIS AND IDENTIFICATION OF PROTEIN IN AXON BUNDLE, AND USAGE OF CULTIVATED NEURON” (THE FOUNDATION FOR THE PROMOTION OF INDUSTRIAL SCIENCE, priority 2016, published 2021).

What all share (format): cell-based
Test [1] has as its system motoneurons derived from human iPS cells (409B2 cell lines). In words: oxidative stress test, Directionality (orientation of axon) after Tau 1 immunostaining. Conditions: H2O2 3 hour treatment, PBS washing, culture medium with or without Edaravone; evaluated two days after treatment; highest = negative control. The method, then:
Here, cell body spheroids were produced by inoculating motoneurons derived from human iPS cells (409B2 cell lines) in the nonadherent cultivation plate 10. Then, after 10 days of cultivation, the cell body spheroids were inoculated in the first chamber 12a of the module 11 of the cultivation plate 10. Then, after 30 days of cultivation, the treatments of the following (1)-(3) conditions were accomplished.
(1) control PBS (Phosphate Buffered Saline) washing>>>culture medium
(2) H2O2 3 hour treatment>>>PBS washing>>>culture medium
(3) H2O2 3 hour treatment>>>PBS washing>>>culture medium containing Edaravone
Two days after the treatment, evaluation was done after immunostaining by marker Tau 1. The evaluation item was Directionality, which was the orientation of axon. Specifically, the orientations of objects in FIG. 22 were measured In this case, 0 degree indicated the direction of fluid conduit (channel 13). Since the axons were bundled and extended in the same direction, their morphological changes in the channel 13 could be compared between in case of under oxidative stress, as shown in FIG. 22 (b), and in case of under oxidative stress accompanied by application of antioxidant (Edaravone), which was used as neurological disease drug, as shown in FIG. 22 (c). […]

Test [2] has the same test system. In words: calcium imaging of motoneuron spheroid with axon bundle after KCl stimulation. The note with it: 1 [mol] of KCl provided to the cell spheroid after fluorescent treatment. From the text:
FIG. 13 is a set of photographs showing motoneurons used for calcium imaging. In FIG. 13, (a) is a photograph of a spheroid with a bundle of axons outside the cultivation plate before adding calcium, (b) is a photograph of a spheroid with a bundle of axons outside the cultivation plate after adding calcium. In the present experiment, motoneurons derived from human iPS cells (409B2 cell lines) were used. The cell spheroids of the motoneurons were inoculated in the first chambers 12a and cultivated. The motoneurons and the cell spheroids were gained in the same way as mentioned above and the cultivation was accomplished in the same way as mentioned above. After cultivation, one of the motoneurons with a well grown and extended bundle of axons was extracted or brought out from the module 11 of the cultivation plate 10. Then 1 [mol] of KCl was provided to the cell spheroid, so that fluorescence became intense, as shown in FIG. 13(b), as a result of electrophysiological activity induced by the stimulation of KCl.

Test [3] has the same test system. In words: ER stress test on axon bundle (form and orientation of axon). Conditions: culture fluid including 1.5 [mol] of thapsigargin for 5 hours, evaluated 6 days later, versus untreated. The source says: The first experiment was accomplished to confirm the effect of ER stress against motoneuron using thapsigargin. In the first experiment, motoneurons derived from human iPS cells (409B2 cell lines) were used. The cell body spheroids of the motoneurons were inoculated in the first chambers 12a and cultivated. The motoneurons and the cell body spheroids were gained in the same way as mentioned above and the cultivation was accomplished in the same way as mentioned above. After cultivation, one of the motoneurons with a well grown and extended axon bundle was treated with culture fluid including 1.5 [mol] of thapsigargin for 5 hours. Then, 6 days later, the form of the axon bundle was evaluated, as shown in FIG. 17(b), in comparison with another axon bundle of the motoneurons not treated with any thapsigargin, as shown in FIG. 17(a). It can be said that, when suffering stress, the orientation of the axon becomes low or the axon degenerates.

Molecules are shown by their SMILES.

`CC1=NN(c2ccccc2)C(=O)C1` [Edaravone]: the “Directionality of the axon bundle in the direction of fluid conduit (0 degree), order among conditions” value in test [1] is reported as “the second”.
Same read-out and setting: then `OO` [H2O2], with “the third”.
Regarding `[Cl-].[K+]` [KCl], the “electrophysiological activity (fluorescence) of motoneuron including cell spheroid and bundle of axons” value in test [2] was “became electrophysiologically active”.
With `C/C=C(/C)C(=O)O[C@H]1C(C)=C2[C@H]([C@@H]1OC(=O)CCCCCCC)[C@@](C)(OC(C)=O)C[C@H](OC(=O)CCC)[C@@]1(O)[C@H]2OC(=O)[C@@]1(C)O` [thapsigargin], in test [3], the “form of the axon bundle under ER stress” value is reported as “became deformed”.
